The results in this text go back to US8993591B2, “1,2,4-triazolo[4,3-a] pyridine derivatives and their use as positive allosteric modulators of MGLUR2 receptors” (Janssen Pharmaceuticals, Inc., priority 2010, dated 2015).

For the test, the target named is T1, human mGluR2 receptor (Homo sapiens, UniProt Q14416).
T1 construct: expressed in transfected cells; host or cells: CHO cells (membranes)
The experiment in a line: [35S]GTPγS binding assay, mGluR2 positive allosteric modulation (PAM). As to conditions: membranes from CHO cells transfected with human mGluR2, in presence of glutamate at EC20; for EC50: -log EC50 with EC50 in M, read-out: GTPγS - hmGluR2 PAM pEC50 (converted); for Emax / GTPγS - hmGluR2 PAM Emax: maximal % effect relative to the control glutamate response; for Emax: read-out: GTPγS - hmGluR2 PAM Emax. It counts as biochemical. The procedure:
The [^35S]GTPγS binding assay is a functional membrane-based assay used to study G-protein coupled receptor (GPCR) function whereby incorporation of a non-hydrolysable form of GTP, [^35S]GTPγS (guanosine 5′-triphosphate, labelled with […] ^35S), is measured. The G-protein α subunit catalyzes the exchange of guanosine 5′-diphosphate (GDP) by guanosine triphosphate (GTP) and on activation of the GPCR by an agonist, [^35S]GTPγS, becomes incorporated and cannot be cleaved to continue the exchange cycle (Harper (1998) Current Protocols in Pharmacology 2.6.1-10, John Wiley & Sons, Inc.). […] Here we describe the use of the [^35S]GTPγS binding assay using membranes from cells transfected with the human mGluR2 receptor and adapted from Schaffhauser et al. ((2003) Molecular Pharmacology 4:798-810) for the detection of the positive allosteric modulation (PAM) properties of the compounds of this invention.
CHO-cells were cultured to pre-confluence and stimulated with 5 mM butyrate for 24 h. Cells were then collected by scraping in PBS and cell suspension was centrifuged (10 min at 4000 RPM in benchtop centrifuge). Supernatant was discarded and pellet gently resuspended in 50 mM Tris-HCl, pH 7.4 by mixing with a vortex and pipetting up and down. The suspension was centrifuged at 16,000 RPM (Sorvall RC-5C plus rotor SS-34) for 10 minutes and the supernatant discarded. The pellet was homogenized in 5 mM Tris-HCl, pH 7.4 using an ultra-turrax homogenizer and centrifuged again (18,000 RPM, 20 min, 4° C.). The final pellet was resuspended in 50 mM Tris-HCl, pH 7.4 and stored at −80° C. in appropriate aliquots before use. Protein concentration was determined by the Bradford method (Bio-Rad, USA) with bovine serum albumin as standard.
Measurement of mGluR2 positive allosteric modulatory activity of test compounds was performed as follows. Test compounds and glutamate were diluted in assay buffer containing 10 mM HEPES acid, 10 mM HEPES salt, pH 7.4, 100 mM NaCl, 3 mM MgCl2 and 10 μM GDP. Human mGlu2 receptor-containing membranes were thawed on ice and diluted in assay buffer supplemented with 14 μg/ml saponin. Membranes were pre-incubated with compound alone or together with a predefined (˜EC20) concentration of glutamate (PAM assay) for 30 min at 30° C. After addition of [^35S]GTPγS (f.c. 0.1 nM), assay mixtures were shaken briefly and further incubated to allow [^35S]GTPγS incorporation on activation (30 minutes, 30° C.). Final assay mixtures contained 7 μg of membrane protein in 10 mM HEPES acid, 10 mM HEPES salt, pH 7.4, 100 mM NaCl, 3 mM MgCl2, 10 μM GDP and 10 μg/ml saponin. Total reaction volume was 200 μl. Reactions were terminated by rapid filtration through Unifilter-96 GF/B plates (Perkin Elmer, Mass., USA) using a 96-well filtermate universal harvester. Filters were washed 6 times with ice-cold 10 mM NaH2PO4/10 mM Na2HPO4, pH 7.4. Filters were then air-dried, and 40 μl of liquid scintillation cocktail (Microscint-O) was added to each well. Membrane-bound radioactivity was counted in a Microplate Scintillation and Luminescence Counter from Perkin Elmer.
The concentration-response curves of representative compounds of the present invention-obtained in the presence of EC20 of mGluR2 agonist glutamate to determine positive allosteric modulation (PAM)-were generated using the Lexis software interface (developed at J&J).

The structures appear in SMILES notation. Structures can show the parent of a compound that is named as a salt.

T1 sequence (Q14416 19-872): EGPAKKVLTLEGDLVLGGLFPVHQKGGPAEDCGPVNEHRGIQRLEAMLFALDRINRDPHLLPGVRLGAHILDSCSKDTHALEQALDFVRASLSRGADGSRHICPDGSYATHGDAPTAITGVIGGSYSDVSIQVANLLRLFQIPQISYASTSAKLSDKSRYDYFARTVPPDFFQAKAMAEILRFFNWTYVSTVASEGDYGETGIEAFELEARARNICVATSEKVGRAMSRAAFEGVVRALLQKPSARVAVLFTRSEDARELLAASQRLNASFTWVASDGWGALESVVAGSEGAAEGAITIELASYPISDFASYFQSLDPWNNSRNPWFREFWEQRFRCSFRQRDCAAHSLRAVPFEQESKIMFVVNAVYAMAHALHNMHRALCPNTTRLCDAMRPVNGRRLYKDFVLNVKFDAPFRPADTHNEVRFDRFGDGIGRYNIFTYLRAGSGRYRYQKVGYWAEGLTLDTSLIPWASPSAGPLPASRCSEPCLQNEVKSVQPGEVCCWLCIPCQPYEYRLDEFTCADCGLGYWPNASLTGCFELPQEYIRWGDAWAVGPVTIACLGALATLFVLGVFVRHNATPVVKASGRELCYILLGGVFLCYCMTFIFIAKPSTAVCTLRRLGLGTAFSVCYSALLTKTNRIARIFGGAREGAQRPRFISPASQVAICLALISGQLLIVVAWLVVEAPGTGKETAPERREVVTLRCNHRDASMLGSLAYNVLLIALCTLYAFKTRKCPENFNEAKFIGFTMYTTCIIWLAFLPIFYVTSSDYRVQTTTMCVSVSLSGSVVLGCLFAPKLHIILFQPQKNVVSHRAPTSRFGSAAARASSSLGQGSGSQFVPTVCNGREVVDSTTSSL

Take `CN1CCN(Cc2ccn3c(CC4CC4)nnc3c2C(F)(F)F)CC1c1ccccc1` (single isomer, unassigned) [Compound 7b, 3-(cyclopropylmethyl)-7-[(4-methyl-3-phenyl-1-piperazinyl)methyl]-8-(trifluoromethyl)-1,2,4-triazolo[4,3-a]pyridine (*S)]: the EC50 is 263 nM and the maximal response (Emax) was 198%.
With `CC1(c2ccccc2)CN(Cc2ccn3c(CC4CC4)nnc3c2C(F)(F)F)CCO1` (single isomer, unassigned) [Compound 8a, 3-(Cyclopropylmethyl)-7-[(2-methyl-2-phenyl-4-morpholinyl)methyl]-8-(trifluoromethyl)-1,2,4-triazolo[4,3-a]pyridine (*R) hydrochloride hydrate (.1.1HCl.1.1H2O)], the EC50 is 676 nM and the “GTPγS - hmGluR2 PAM Emax” value was determined as 273%.
`CC1(c2ccccc2)CN(Cc2ccn3c(CC4CC4)nnc3c2C(F)(F)F)CCN1` (single isomer, unassigned) [Compound 3a, 3-(Cyclopropylmethyl)-7-[(3-methyl-3-phenyl-1-piperazinyl)methyl]-8-(trifluoromethyl)-1,2,4-triazolo[4,3-a]pyridine (*R) hydrochloride hydrate (.2HCl.2.5H2O)]: the maximum response (Emax) is 271%.
For the molecule `Fc1ccccc1C1CN(Cc2ccn3c(CC4CC4)nnc3c2C(F)(F)F)CCN1` (single isomer, unassigned) [Compound 6a, 3-(cyclopropylmethyl)-7-[[3-(2-fluorophenyl)-1-piperazinyl]methyl]-8-(trifluoromethyl)-1,2,4-triazolo[4,3-a]pyridine (*R)], the EC50 is 447 nM and the “GTPγS - hmGluR2 PAM Emax” value amounted to 208%.
As to `FC(F)(F)c1c(CN2CCO[C@@H](c3ccccc3)C2)ccn2c(CC3CC3)nnc12` [Compound 4, 3-(Cyclopropylmethyl)-7-[[(2S)-2-phenyl-4-morpholinyl]methyl]-8-(trifluoromethyl)-1,2,4-triazolo[4,3-c]pyridine], the EC50 was 324 nM and the Emax is 294%.
The corresponding values for `Fc1ccc(N2CCN(Cc3ccn4c(CC5CC5)nnc4c3C(F)(F)F)C3CC32)c(F)c1` (racemic) [Compound 12, 2-[[3-(Cyclopropylmethyl)-8-(trifluoromethyl)-1,2,4-triazolo[4,3-a]pyridin-7-yl]methyl]-5-(2,4-difluorophenyl)-2,5-diazabicyclo[4.1.0]heptane (cis)] are 12.6 nM and 277%.
For the molecule `CC1(c2ccccc2)CCN(Cc2ccn3c(CC4CC4)nnc3c2C(F)(F)F)C1` (single isomer, unassigned) [Compound 13, 3-(cyclopropylmethyl)-7-[(3-methyl-3-phenyl-1-pyrrolidinyl)methyl]-8-(trifluoromethyl)-1,2,4-triazolo[4,3-a]pyridine (*R)], the EC50 was 12.6 nM and the “GTPγS - hmGluR2 PAM Emax” value was determined as 248%.
As for `FC(F)(F)c1c(CN2CCNC(c3ccccc3)C2)ccn2c(CC3CC3)nnc12` (single isomer, unassigned) [Compound 5a, 3-(Cyclopropylmethyl)-7-[(3-phenyl-1-piperazinyl)methyl]-8-(trifluoromethyl)-1,2,4-triazolo[4,3-a]pyridine(*R)], the EC50 is 2240 nM and the maximal response (Emax) turned out to be 270%.
As to `CN1CCN(Cc2ccn3c(CC4CC4)nnc3c2C(F)(F)F)CC1c1ccccc1` (single isomer, unassigned) [Compound 7a, 3-(Cyclopropylmethyl)-7-[(4-methyl-3-phenyl-1-piperazinyl)methyl]-8-(trifluoromethyl)-1,2,4-triazolo[4,3-a]pyridine (*R)], the Emax was 199%.
Take `Fc1ccccc1C1CN(Cc2ccn3c(CC4CC4)nnc3c2C(F)(F)F)CCN1` (single isomer, unassigned) [Compound 6b, 3-(cyclopropylmethyl)-7-[[3-(2-fluorophenyl)-1-piperazinyl]methyl]-8-(trifluoromethyl)-1,2,4-triazolo[4,3-a]pyridine (*S)]: the EC50 was 631 nM and the “GTPγS - hmGluR2 PAM Emax” value is listed as 294%.
With `FC(F)(F)c1c(CN2CCO[C@H](c3ccccc3)C2)ccn2c(CC3CC3)nnc12` [Compound 2, 3-(Cyclopropylmethyl)-7-[[(2R)-2-phenyl-4-morpholinyl]methyl]-8-(trifluoromethyl)-1,2,4-triazolo[4,3-a]pyridine], the EC50 is 871 nM and the Emax amounted to 267%.
As to `FC(F)(F)c1c(CN2CCNC(c3ccccc3)C2)ccn2c(CC3CC3)nnc12` (single isomer, unassigned) [Compound 5b, 3-(cyclopropylmethyl)-7-[(3-phenyl-1-piperazinyl)methyl]-8-(trifluoromethyl)-1,2,4-triazolo[4,3-a]pyridine (*S)], the EC50 is 955 nM and the “GTPγS - hmGluR2 PAM Emax” value was 278%.
As to `CC1(c2ccccc2)CN(Cc2ccn3c(CC4CC4)nnc3c2C(F)(F)F)CCN1` (single isomer, unassigned) [Compound 3b, 3-(cyclopropylmethyl)-7-[(3-methyl-3-phenyl-1-piperazinyl)methyl]-8-(trifluoromethyl)-1,2,4-triazolo[4,3-a]pyridine (*S) hydrochloride hydrate (.2.4HCl.2.7H2O)], the EC50 is 37.2 nM and the Emax turned out to be 292%.
The corresponding values for `Fc1ccc(C2CN(Cc3ccn4c(CC5CC5)nnc4c3C(F)(F)F)CCO2)c(F)c1` (single isomer, unassigned) [Compound 17, 3-(Cyclopropylmethyl)-7-{[(2*R)-2-(2,4-difluorophenyl)morpholin-4-yl]methyl}-8-(trifluoromethyl)[1,2,4]triazolo[4,3-a]pyridine] are 977 nM and 259%.
Turning to `CC1(c2ccccc2)CCN(Cc2ccn3c(CC4CC4)nnc3c2C(F)(F)F)C1` (single isomer, unassigned) [Compound 14, 3-(cyclopropylmethyl)-7-[(3-methyl-3-phenyl-1-pyrrolidinyl)methyl]-8-(trifluoromethyl)-1,2,4-triazolo[4,3-a]pyridine (*S)], the EC50 is 15.1 nM and the “GTPγS - hmGluR2 PAM Emax” value came out at 286%.
The corresponding values for `Fc1ccc(C2CN(Cc3ccn4c(CC5CC5)nnc4c3C(F)(F)F)CCN2)c(F)c1` (single isomer, unassigned) [Compound 19a, 3-(Cyclopropylmethyl)-7-{[(3*R)-3-(2,4-difluorophenyl)piperazin-1-yl]methyl}-8-(trifluoromethyl)[1,2,4]triazolo[4,3-a]pyridine] are 912 nM and 320%.
The corresponding values for `Fc1ccc(C2CN(Cc3ccn4c(CC5CC5)nnc4c3C(F)(F)F)CCN2)c(F)c1` (single isomer, unassigned) [Compound 19b, 3-(Cyclopropylmethyl)-7-{[(3*S)-3-(2,4-difluorophenyl)piperazin-1-yl]methyl}-8-(trifluoromethyl)[1,2,4]triazolo[4,3-a]pyridine] are 468 nM and 279%.
The corresponding values for `CC1(c2ccccc2)CN(Cc2ccn3c(CC4CC4)nnc3c2C(F)(F)F)CCO1` (single isomer, unassigned) [Compound 8b, 3-(cyclopropylmethyl)-7-[(2-methyl-2-phenyl-4-morpholinyl)methyl]-8-(trifluoromethyl)-1,2,4-triazolo[4,3-a]pyridine (*S) hydrochloride hydrate (.1.3HCl.1.6H2O)] are 8.32 nM and 243%.

Usually Emax stands for the size of the effect at its maximum, as opposed to the concentration needed.
